Literature values in US6391849B1, “Method and pharmaceutical composition for disrupting lactation in a mammary gland and for treating and preventing mastitis” (Agricultural Research Organization, The Volcani Center, priority 1999, dated 2002).

Tested on: mammary gland
Conditions: EGTA introduced into the mammary gland

Compound: O=C(O)CN(CCOCCOCCN(CC(=O)O)CC(=O)O)CC(=O)O [EGTA]
- TJ integrity: transient loss
- milk yield: transient reduction
